The experiment relates to KRAS patient-derived spheroids with HUVEC/MSC, viability. Kind of experiment: Anticancer human tumor 941728-121-R-J1-PDC patient-derived lung adenocarcinoma cell line growth inhibition [KRAS2]. The settings on record: for viability, T/C: stronger effect = lower value. An excerpt: Multicellular complex tumor spheroid response to RAS pathway inhibitors in combination with a targeted agents in patient-derived cell lines with oncogenic KRAS variants from multiple cancer types
A high-throughput screen of multi-cell type tumor spheroids was designed to identify active combinations of targeted small molecules and KRAS pathway inhibitors. Complex spheroids include a stromal component modeled by human endothelial cells (HUVEC) and fibroblasts modeled by human mesenchymal stem cells (MSCs). The concentration ranges selected for each drug and investigational agent were based upon clinically achievable concentrations if the clinical Cmax of the agent was known.
Compounds. The drugs and investigational agents: BI-3406 (NSC825286), BAY-293 (NSC824723), batoprotafib (TNO155; NSC825523), sotorasib (AMG 510; NSC818433), MRTX1257 (NSC819558), elimusertib (BAY 1895344; NSC800525), molibresib (GSK525762; NSC774829), temuterkib (LY3214996; NSC803410), venetoclax (NSC766270), alisertib (NSC759677), olaparib (NSC753686), talazoparib (NSC767125), erdafitinib (NSC781556), ipatasertib (NSC767898), cabozantinib (NSC761068), nintedanib (NSC756659), abemaciclib (NSC768073), docetaxel (NSC628503), trametinib (NSC758246), and sapanisertib (NSC764658) were obtained from the National Cancer Institute (NCI) Developmental Therapeutics Program Chemical Repository. The FDA-approved anticancer drug set is available from the Developmental Therapeutics Program. […] The stock solutions were prepared in dimethyl sulfoxide (DMSO, Sigma-Aldrich, St. Louis, MO, cat. D2650) at 800-fold the tested concentration and stored at -70 degrees C prior to their use. All drugs and investigational agents were tested over a range starting from a high concentration at or near the clinical Cmax and decreasing in half-log increments. If the clinical Cmax for an agent had not been determined, the highest concentration tested was 10 microM.
Cell Culture. All cells were maintained in an incubator at 37 degrees C and 5% CO2 with 95% humidity. The PDC lines were cultured according to standard operating procedures established by the NCI PDMR (https://pdmr.cancer.gov/sops/default.htm). Briefly, all PDCs were thawed and cultured in Matrigel-coated flasks prepared with a working solution of 1X Ham's F-12 nutrient mix, without supplementation (Invitrogen, Waltham, MA, cat. 11765054), 100 U/mL penicillin-streptomycin (Invitrogen, cat. 15140122), and 2.5% Matrigel (Corning Inc., Corning, NY, cat. 354248) for the first three passages. All PDCs were cultured in complete DMEM/F-12 media containing advanced DMEM/F-12 (Invitrogen, cat. 12634028), 4.9% defined fetal bovine serum, heat inactivated (HyClone Laboratories Inc., Logan, UT, cat. SH30070.03HI), 389 ng/mL hydrocortisone (Sigma-Aldrich, cat. H4001), 9.7 ng/mL human EGF recombinant protein (Invitrogen, cat. PHG0313), 23.4 microg/mL adenine (Sigma-Aldrich, cat. A2786), 97.3 U/mL penicillin-streptomycin (Invitrogen, cat. 15140122), 1.9 mM L-glutamine (Invitrogen, cat. 25030081), and 9.7 microM Y-27632 dihydrochloride (Tocris Bioscience, Bristol, United Kingdom, cat. 1254). The PDCs were cultured in complete DMEM/F12 media without 9.7 microM Y-27632 dihydrochloride for at least two passages prior to the screen. The established cell line HOP-62 was cultured in RPMI 1640 medium, HEPES (Invitrogen, cat. 22400105) with 10% defined fetal bovine serum (HyClone Laboratories Inc., cat. SH30070.03) and 2 mM L-glutamine (Invitrogen, cat. 25030081). The pooled donor HUVEC were cultured in endothelial cell growth medium 2 (PromoCell, Heidelberg, Germany, cat. C-22011) and the hMSC were cultured in mesenchymal stem cell growth medium 2 (PromoCell, cat. C-28009). For all experiments, HUVEC and hMSC were used at passages </=5, while the malignant cell lines were used at passages </=15. […]

[1] abbreviates: compound alone, run of 07/12/2021.
The mark [2] stands for this setting: compound alone, run of 07/19/2021.
[3] abbreviates: compound alone, run of 07/26/2021.

Where “and” joins values, the source holds several entries; their conditions need not be identical. Identical values can stand only once. Calls of active or inactive are those of the source. The calls were made as follows: active = viability on the fitted dose curve at most 10% of control; inactive = the rest.

By viability, T/C is commonly meant the result in the treated group divided by that in the control group, in per cent. A word on the IC50: it is the concentration that inhibits the measured activity by half.
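For IC50 in this document: spheroids exposed to agents for seven days before readout.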
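For viability, T/C in this document: spheroids exposed to agents for seven days before readout.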

`C=CC(=O)N1CCN(c2nc(=O)n(-c3c(C)ccnc3C(C)C)c3nc(-c4c(O)cccc4F)c(F)cc23)C(C)C1` (stereo not given): the viability, T/C is 23.2% [middle of 17 runs] (compound 0.1 µM); 22.9% [middle of 17 runs] (compound 0.316 µM); 22.8% [middle of 17 runs] (compound 1 µM); 27.4% [middle of 17 runs] (compound 3.16 µM); 32.9% [middle of 17 runs] (compound 10 µM). In addition, the IC50 was < 100 nM under setting [1], < 100 nM under setting [2] and < 100 nM under setting [3].

As for `C=CC(=O)N1CCN(c2nc(OCC3CCCN3C)nc3c2CCN(c2cccc4cccc(C)c24)C3)CC1CC#N` (stereo not given), the viability, T/C by setting is: (compound 0.1 µM) 30.3% [middle of 16 runs]; (compound 1 µM) 27.2% [middle of 17 runs]. In addition, the IC50 is < 31.6 nM under setting [1], < 31.6 nM under setting [2] and < 31.6 nM under setting [3].

Take `CC(=O)Nc1cccc(-n2c(=O)n(C3CC3)c(=O)c3c(Nc4ccc(I)cc4F)n(C)c(=O)c(C)c32)c1`: the viability, T/C (compound 0.0001 µM) is 84.8% [middle of 5 runs]; the viability, T/C (compound 0.000316 µM) was 63.7% [middle of 5 runs]; the viability, T/C (compound 0.001 µM) was 53.3% [middle of 5 runs]; the viability, T/C (compound 0.00316 µM) was 49.9% [middle of 4 runs]; the viability, T/C (compound 0.01 µM) was 47.2% [middle of 5 runs]; the viability, T/C (compound 0.0316 µM) is 42.3% [middle of 5 runs].

For `CC(=O)OC12COC1CC(O)C1(C)C(=O)C(O)C3=C(C)C(OC(=O)C(O)C(NC(=O)OC(C)(C)C)c4ccccc4)CC(O)(C(OC(=O)c4ccccc4)C21)C3(C)C` (stereo not given), the viability, T/C was 53% [middle of 5 runs] (compound 0.01 µM); 46.3% [middle of 5 runs] (compound 0.0316 µM); 46.2% [middle of 5 runs] (compound 0.1 µM); 46.5% [middle of 5 runs] (compound 0.316 µM); 53.8% [middle of 5 runs] (compound 1 µM); 55.1% [middle of 5 runs] (compound 3.16 µM).

`CC(C)NCC(C(=O)N1CCN(c2ncnc3c2C(C)CC3O)CC1)c1ccc(Cl)cc1` (stereo not given): the viability, T/C runs as follows: (compound 0.0316 µM) 92.1% [middle of 5 runs]; (compound 0.1 µM) 90.6% [middle of 5 runs]; (compound 0.316 µM) 56.5% [middle of 5 runs]; (compound 1 µM) 43.8% [middle of 5 runs]; (compound 10 µM) 31.9% [middle of 5 runs]. The IC50 (curve of compound) was 592 nM [middle of 5 runs].

For `CC(C)n1nc(-c2ccc3oc(N)nc3c2)c2c(N)ncnc21`, the viability, T/C (compound 0.000316 µM) is 90% [middle of 5 runs].

As for `CC1(C)CCC(CN2CCN(c3ccc(C(=O)NS(=O)(=O)c4ccc(NCC5CCOCC5)c([N+](=O)[O-])c4)c(Oc4cnc5[nH]ccc5c4)c3)CC2)=C(c2ccc(Cl)cc2)C1`, the viability, T/C by setting is: (compound 1 µM) 51.1% [middle of 5 runs]; (compound 3.16 µM) 11.1% [middle of 5 runs]; (compound 10 µM) 5.66% [middle of 5 runs]. Besides, the IC50 (curve of compound) was 918 nM [middle of 5 runs].

For `CC1COCCN1c1cc(-c2ccnn2C)c2ccnc(-c3ccn[nH]3)c2n1` (stereo not given), the viability, T/C (compound 0.1 µM) was 44% [middle of 5 runs]; the viability, T/C (compound 0.316 µM) is 42% [middle of 5 runs]; the viability, T/C (compound 1 µM) was 35.4% [middle of 5 runs]; the viability, T/C (compound 3.16 µM) is 33.2% [middle of 5 runs].

Take `CC1OCC2(CCN(c3cnc(Sc4ccnc(N)c4Cl)c(N)n3)CC2)C1N` (stereo not given): the viability, T/C runs as follows: (compound 0.0316 µM) 71% and 57.9% and 63.9%; (compound 0.1 µM) 48.3% [middle of 19 runs]; (compound 0.316 µM) 38% [middle of 19 runs]; (compound 3.16 µM) 29.8% [middle of 20 runs]. Moreover, the IC50 under setting [2] was < 100 nM and the concentration for half-maximal inhibition (IC50) (curve of compound) is 141 nM [middle of 5 runs].

On to `CCN1CCN(Cc2ccc(Nc3ncc(F)c(-c4cc(F)c5nc(C)n(C(C)C)c5c4)n3)nc2)CC1`, for which the viability, T/C by setting is: (compound 0.00316 µM) 86.1% [middle of 5 runs]; (compound 0.01 µM) 71.3% [middle of 5 runs]; (compound 0.0316 µM) 60.2% [middle of 5 runs]; (compound 0.1 µM) 59.9% [middle of 5 runs]; (compound 0.316 µM) 60.4% [middle of 5 runs]; (compound 1 µM) 74.5% [middle of 5 runs]. For the same compound, the IC50 (curve of compound) is > 1000 nM.

Take `CCNC(=O)CC1N=C(c2ccc(Cl)cc2)c2cc(OC)ccc2-n2c(C)nnc21` (stereo not given): the viability, T/C is, setting by setting: (compound 0.0316 µM) 94% [middle of 5 runs]; (compound 0.316 µM) 61.8% [middle of 5 runs].

For `CN(C)C/C=C/C(=O)Nc1cc2c(Nc3ccc(F)c(Cl)c3)ncnc2cc1O[C@H]1CCOC1`, the viability, T/C is, setting by setting: (compound 0.000316 µM) 89.4% [middle of 5 runs]; (compound 0.001 µM) 78.7% [middle of 5 runs]; (compound 0.00316 µM) 63.7% [middle of 5 runs]; (compound 0.01 µM) 61.1% [middle of 5 runs]; (compound 0.0316 µM) 57.2% [middle of 5 runs]; (compound 0.1 µM) 62.2% [middle of 5 runs]. In addition, the half-inhibitory concentration (IC50) (curve of compound) was > 100 nM.

For the compound `COC(=O)c1ccc2c(C(=Nc3ccc(N(C)C(=O)CN4CCN(C)CC4)cc3)c3ccccc3)c(O)[nH]c2c1`, the viability, T/C is 77.9% [middle of 5 runs] (compound 0.1 µM), 68.6% [middle of 5 runs] (compound 1 µM), 69% [middle of 5 runs] (compound 3.16 µM) and 64% [middle of 5 runs] (compound 10 µM). The IC50 (curve of compound) is > 10000 nM.

On to `COc1cc(Nc2ncc3c(n2)-c2ccc(Cl)cc2C(c2c(F)cccc2OC)=NC3)ccc1C(=O)O`, for which the viability, T/C was 63.3% [middle of 5 runs] (compound 1 µM), 55% [middle of 5 runs] (compound 3.16 µM) and 50.9% [middle of 5 runs] (compound 10 µM).

Turning to `COc1cc(OC)cc(N(CCNC(C)C)c2ccc3ncc(-c4cnn(C)c4)nc3c2)c1`, the viability, T/C (compound 0.1 µM) was 104% [middle of 5 runs] and the viability, T/C (compound 0.316 µM) is 92% [middle of 5 runs].

As to `COc1cc2nccc(Oc3ccc(NC(=O)C4(C(=O)Nc5ccc(F)cc5)CC4)cc3)c2cc1OC`, the viability, T/C is 97.7% [middle of 5 runs] (compound 0.0316 µM) and 83.8% [middle of 5 runs] (compound 0.316 µM). The outcome (compound 10 µM) was inactive. In addition, under “curve of compound”, the IC50 is > 10000 nM and 2760 nM.

On to `Cn1nccc1Nc1nccc(-c2cc3c(s2)C(C)(C)N(CCN2CCOCC2)C3=O)n1`, for which the viability, T/C was 90.5% [middle of 5 runs] (compound 0.0316 µM); 57.3% [middle of 5 runs] (compound 0.316 µM); 48.8% [middle of 5 runs] (compound 1 µM); 50.1% [middle of 5 runs] (compound 3.16 µM); 51.3% [middle of 5 runs] (compound 10 µM).

Regarding `Cn1ncnc1[C@H]1c2n[nH]c(=O)c3cc(F)cc(c23)N[C@@H]1c1ccc(F)cc1`, the viability, T/C reads like this: (compound 0.000316 µM) 98.9% [middle of 5 runs]; (compound 0.001 µM) 104% [middle of 5 runs]; (compound 0.00316 µM) 91.5% [middle of 5 runs]; (compound 0.01 µM) 93.2% [middle of 5 runs]. For the same compound, the IC50 (curve of compound) is > 100 nM.

With `O=C(c1cc(Cc2n[nH]c(=O)c3ccccc23)ccc1F)N1CCN(C(=O)C2CC2)CC1`, the viability, T/C is 96.4% [middle of 5 runs] (compound 0.1 µM), 92.6% [middle of 5 runs] (compound 0.316 µM) and 82% [middle of 5 runs] (compound 10 µM). Further, under “curve of compound”, the IC50 was > 10000 nM.
